Assay results as given in article PMC5218480 (PLoS ONE, 2017).

Test system: MV-4-11 cells
Test: Gene expression microarray analysis (Affymetrix PrimeView) and GSEA
Assay type: cell-based, human
Design: RFU PODN (11730768_x_at) / Fold change /veh PODN (11730768_x_at) / RFU LINC00158 (11744669_a_at) / Fold change /veh LINC00158 (11744669_a_at) / RFU DUSP10 (11751237_a_at) / Fold change /veh DUSP10 (11751237_a_at) / RFU ID3 (11757404_x_at) / Fold change /veh ID3 (11757404_x_at) / RFU PLEKHG5 (11737974_s_at) / Fold change /veh PLEKHG5 (11737974_s_at) / RFU LRRC4B (11730491_at) / Fold change /veh LRRC4B (11730491_at) / RFU GIMAP4 (11747438_a_at) / Fold change /veh GIMAP4 (11747438_a_at) / RFU KRT8 (11758183_x_at) / Fold change /veh KRT8 (11758183_x_at) / RFU CNN1 (11734310_a_at) / Fold change /veh CNN1 (11734310_a_at) / RFU VPS37D (11726825_at) / Fold change /veh VPS37D (11726825_at) / RFU C10orf10 (11716522_x_at) / Fold change /veh C10orf10 (11716522_x_at) / RFU KIR2DL2 /// KIR2DL4 /// KIR2DL5A /// KIR2DL5B /// KIR2DS1 /// KIR2DS2 /// KIR2DS3 /// KIR2DS4 /// KIR3DL3 /// KIR3DL3 /// KIR3DS1 (11738374_at) / Fold change /veh KIR2DL2 /// KIR2DL4 /// KIR2DL5A /// KIR2DL5B /// KIR2DS1 /// KIR2DS2 /// KIR2DS3 /// KIR2DS4 /// KIR3DL3 /// KIR3DL3 /// KIR3DS1 (11738374_at) / RFU C1QL1 (11718748_at) / Fold change /veh C1QL1 (11718748_at) / RFU TMPRSS4 (11747572_a_at) / Fold change /veh TMPRSS4 (11747572_a_at) / RFU HAMP (11756126_x_at) / Fold change /veh HAMP (11756126_x_at) / RFU RNFT2 (11725882_a_at) / Fold change /veh RNFT2 (11725882_a_at) / RFU NR4A2 (11747474_a_at) / Fold change /veh NR4A2 (11747474_a_at) / RFU ABCC12 (11746883_a_at) / Fold change /veh ABCC12 (11746883_a_at) / RFU TMEM136 (11760407_x_at) / Fold change /veh TMEM136 (11760407_x_at) / RFU CLDN22 /// WWC2 (11732394_at) / Fold change /veh CLDN22 /// WWC2 (11732394_at) / RFU HLA-DPB1 (11760878_x_at) / Fold change /veh HLA-DPB1 (11760878_x_at) / RFU SPINT1 (11716480_a_at) / Fold change /veh SPINT1 (11716480_a_at) / RFU GAP43 (11754022_s_at) / Fold change /veh GAP43 (11754022_s_at) / RFU A4GNT (11735810_at) / Fold change /veh A4GNT (11735810_at) / RFU PRB3 (11715151_x_at) / Fold change /veh PRB3 (11715151_x_at) / RFU TUBB4B (11761932_at) / Fold change /veh TUBB4B (11761932_at) / RFU CAPN14 (11732068_a_at) / Fold change /veh CAPN14 (11732068_a_at) / RFU TMCC2 (11721928_a_at) / Fold change /veh TMCC2 (11721928_a_at) / RFU IRGQ (11745062_a_at) / Fold change /veh IRGQ (11745062_a_at) / RFU FAM174B (11720279_a_at) / Fold change /veh FAM174B (11720279_a_at) / RFU TMPRSS4 (11748680_a_at) / Fold change /veh TMPRSS4 (11748680_a_at) / RFU FAM212B (11763350_a_at) / Fold change /veh FAM212B (11763350_a_at) / RFU PLEKHG5 (11743358_a_at) / Fold change /veh PLEKHG5 (11743358_a_at) / RFU ZSCAN30 (11745921_a_at) / Fold change /veh ZSCAN30 (11745921_a_at) / RFU CMKLR1 (11741424_a_at) / Fold change /veh CMKLR1 (11741424_a_at) / RFU LOC101060620 /// MAPK8IP1 (11723275_at) / Fold change /veh LOC101060620 /// MAPK8IP1 (11723275_at) / RFU SPTSSB (11747773_x_at) / Fold change /veh SPTSSB (11747773_x_at) / RFU PRSS12 (11739890_at) / Fold change /veh PRSS12 (11739890_at) / RFU BIN1 (11741810_x_at) / Fold change /veh BIN1 (11741810_x_at) / RFU WNT11 (11732464_a_at) / Fold change /veh WNT11 (11732464_a_at) / RFU C10orf10 (11716521_a_at) / Fold change /veh C10orf10 (11716521_a_at) / RFU C5orf56 (11738089_at) / Fold change /veh C5orf56 (11738089_at) / RFU CYB561 (11721691_x_at) / Fold change /veh CYB561 (11721691_x_at) / RFU ANKRD19P (11752326_a_at) / Fold change /veh ANKRD19P (11752326_a_at) / RFU OR2T12 /// OR2T33 /// OR2T8 (11738714_s_at) / Fold change /veh OR2T12 /// OR2T33 /// OR2T8 (11738714_s_at) / RFU VCAN (11748164_a_at) / Fold change /veh VCAN (11748164_a_at) / RFU JSRP1 (11732532_at) / Fold change /veh JSRP1 (11732532_at) / RFU KRTAP10-11 (11738290_x_at) / Fold change /veh KRTAP10-11 (11738290_x_at) / RFU MYO3A (11730013_a_at) / Fold change /veh MYO3A (11730013_a_at) / RFU EBF3 (11725865_a_at) / Fold change /veh EBF3 (11725865_a_at) / RFU CAMK2N1 (11719241_x_at) / Fold change /veh CAMK2N1 (11719241_x_at) / RFU C5orf56 (11738088_a_at) / Fold change /veh C5orf56 (11738088_a_at) / RFU OLFML3 (11715873_a_at) / Fold change /veh OLFML3 (11715873_a_at) / RFU LOC100653217 /// NTM (11731650_a_at) / Fold change /veh LOC100653217 /// NTM (11731650_a_at) / RFU MAPK11 (11762145_a_at) / Fold change /veh MAPK11 (11762145_a_at) / RFU FIZ1 (11724087_x_at) / Fold change /veh FIZ1 (11724087_x_at) / RFU OASL (11726364_x_at) / Fold change /veh OASL (11726364_x_at) / RFU SOX15 (11748057_x_at) / Fold change /veh SOX15 (11748057_x_at) / RFU CD79A (11719716_a_at) / Fold change /veh CD79A (11719716_a_at) / RFU HIST1H1D (11736915_at) / Fold change /veh HIST1H1D (11736915_at) / RFU CASKIN2 (11723855_a_at) / Fold change /veh CASKIN2 (11723855_a_at) / RFU LOC730098 (11760151_x_at) / Fold change /veh LOC730098 (11760151_x_at) / RFU OR4N2 (11742367_at) / Fold change /veh OR4N2 (11742367_at) / RFU PRRT2 (11749266_a_at) / Fold change /veh PRRT2 (11749266_a_at) / RFU SNX32 (11753110_a_at) / Fold change /veh SNX32 (11753110_a_at) / RFU CDHR5 (11726645_a_at) / Fold change /veh CDHR5 (11726645_a_at) / RFU RCAN1 (11760418_a_at) / Fold change /veh RCAN1 (11760418_a_at) / RFU FAM167A (11723789_a_at) / Fold change /veh FAM167A (11723789_a_at) / RFU FAM26E (11764081_at) / Fold change /veh FAM26E (11764081_at) / RFU ISYNA1 (11749810_s_at) / Fold change /veh ISYNA1 (11749810_s_at) / RFU ACY1 (11761880_at) / Fold change /veh ACY1 (11761880_at) / RFU 11764098_at / Fold change /veh 11764098_at / RFU SAMD14 (11745864_x_at) / Fold change /veh SAMD14 (11745864_x_at) / RFU NPB (11741838_a_at) / Fold change /veh NPB (11741838_a_at) / RFU TMPRSS6 (11731388_a_at) / Fold change /veh TMPRSS6 (11731388_a_at) / RFU KRTAP10-2 (11738614_at) / Fold change /veh KRTAP10-2 (11738614_at) / RFU ARHGAP8 /// PRR5-ARHGAP8 (11727945_x_at) / Fold change /veh ARHGAP8 /// PRR5-ARHGAP8 (11727945_x_at) / RFU KRTAP5-7 /// NADSYN1 (11734609_at) / Fold change /veh KRTAP5-7 /// NADSYN1 (11734609_at) / RFU RASL12 (11751679_a_at) / Fold change /veh RASL12 (11751679_a_at) / RFU CDKN2B (11736163_a_at) / Fold change /veh CDKN2B (11736163_a_at) / RFU PRF1 (11729649_at) / Fold change /veh PRF1 (11729649_at) / RFU, ZNF638 /// ZNF638-IT1 / Fold change vs veh, ZNF638 /// ZNF638-IT1 / RFU, PANK3 / Fold change vs veh, PANK3 / RFU, SH3YL1 / Fold change vs veh, SH3YL1 / RFU, ZEB2 / Fold change vs veh, ZEB2 / RFU, NRIP1 / Fold change vs veh, NRIP1 / RFU, PTTG1IP / Fold change vs veh, PTTG1IP / RFU, CAPN2 / Fold change vs veh, CAPN2 / RFU, MED14 / Fold change vs veh, MED14 / RFU, SNORA58 / Fold change vs veh, SNORA58 / RFU, C1orf63 / Fold change vs veh, C1orf63 / RFU, LRRFIP1 / Fold change vs veh, LRRFIP1 / RFU, NDUFAF7 / Fold change vs veh, NDUFAF7 / RFU, SLC12A2 / Fold change vs veh, SLC12A2 / RFU, IBTK / Fold change vs veh, IBTK / RFU, ESF1 / Fold change vs veh, ESF1 / Fold change vs veh, TMEM50B / RFU, TAOK1 / Fold change vs veh, TAOK1 / RFU, ACBD3 / Fold change vs veh, ACBD3 / RFU, TMA16 / Fold change vs veh, TMA16 / RFU, RWDD3 / Fold change vs veh, RWDD3 / RFU, BCAT1 / Fold change vs veh, BCAT1 / RFU, EDEM3 / Fold change vs veh, EDEM3 / RFU, TMEM33 / Fold change vs veh, TMEM33 / RFU, WDR75 / Fold change vs veh, WDR75 / RFU, AHCTF1 / Fold change vs veh, AHCTF1 / RFU, TFRC / Fold change vs veh, TFRC / RFU, ZDHHC17 / Fold change vs veh, ZDHHC17 / RFU, NOM1 / Fold change vs veh, NOM1 / RFU, ARL8B / Fold change vs veh, ARL8B / RFU, ZBTB11 / Fold change vs veh, ZBTB11 / RFU, TAMM41 / Fold change vs veh, TAMM41 / RFU, KIAA1704 /// LOC100996395 / Fold change vs veh, KIAA1704 /// LOC100996395 / RFU, ING1 / Fold change vs veh, ING1 / RFU, TRMT61B / Fold change vs veh, TRMT61B / RFU, FUBP3 / Fold change vs veh, FUBP3 / RFU, TP53 / Fold change vs veh, TP53 / RFU, TNKS2 / Fold change vs veh, TNKS2 / RFU, ZFP14 / Fold change vs veh, ZFP14 / RFU, ACTR2 / Fold change vs veh, ACTR2 / RFU, PPP3R1 / Fold change vs veh, PPP3R1 / RFU, PIK3R1 / Fold change vs veh, PIK3R1 / RFU, HNRNPA1 / Fold change vs veh, HNRNPA1 / RFU, RNF170 / Fold change vs veh, RNF170 / RFU, ZNF28 / Fold change vs veh, ZNF28 / RFU, RNGTT / Fold change vs veh, RNGTT / RFU, OGT / Fold change vs veh, OGT / RFU, BRD1 / Fold change vs veh, BRD1 / RFU, MARS / Fold change vs veh, MARS / RFU, ZNF655 / Fold change vs veh, ZNF655 / RFU, FAHD1 / Fold change vs veh, FAHD1 / RFU, BDP1 / Fold change vs veh, BDP1 / RFU, LRRCC1 / Fold change vs veh, LRRCC1 / RFU, ARID1A / Fold change vs veh, ARID1A / RFU, ZNF146 / Fold change vs veh, ZNF146 / RFU, ZNF330 / Fold change vs veh, ZNF330 / RFU, GPN3 / Fold change vs veh, GPN3 / RFU, C9orf123 / Fold change vs veh, C9orf123 / RFU, N4BP2L2 / Fold change vs veh, N4BP2L2 / RFU, ARFIP1 / Fold change vs veh, ARFIP1 / RFU, FAM179B / Fold change vs veh, FAM179B / RFU, BCL10 / Fold change vs veh, BCL10 / RFU, UHRF1BP1L / Fold change vs veh, UHRF1BP1L / RFU, BET1 / Fold change vs veh, BET1 / RFU, CNOT2 / Fold change vs veh, CNOT2 / RFU, ZNF268 / Fold change vs veh, ZNF268 / Fold change vs veh, ZNF507 / RFU, DGCR2 / Fold change vs veh, DGCR2 / RFU, WDSUB1 / Fold change vs veh, WDSUB1 / Fold change vs veh, HSP90B1 /// MIR3652 / RFU, ADSS / Fold change vs veh, ADSS / RFU, GK / Fold change vs veh, GK / RFU, ZNF148 / Fold change vs veh, ZNF148 / RFU, TAF9 / Fold change vs veh, TAF9 / RFU, SLC1A5 / Fold change vs veh, SLC1A5 / RFU, SLMO2 / Fold change vs veh, SLMO2 / RFU, ABCC4 / Fold change vs veh, ABCC4 / RFU, LOC101060439 /// RAP1B / Fold change vs veh, LOC101060439 /// RAP1B / RFU, RFX7 / Fold change vs veh, RFX7 / RFU, GTPBP10 / Fold change vs veh, GTPBP10 / RFU, CNEP1R1 / Fold change vs veh, CNEP1R1 / RFU, BIVM-ERCC5 /// ERCC5 / Fold change vs veh, BIVM-ERCC5 /// ERCC5 / RFU, ILF3 / Fold change vs veh, ILF3 / RFU 11762660_at / Fold change /veh 11762660_at / RFU VCAN (11757783_s_at) / Fold change /veh VCAN (11757783_s_at) / RFU DDX43 (11728927_at) / Fold change /veh DDX43 (11728927_at) / RFU KRT8 (11758188_x_at) / Fold change /veh KRT8 (11758188_x_at) / RFU NKD1 (11759106_at) / Fold change /veh NKD1 (11759106_at) / RFU SRD5A1 (11742802_a_at) / Fold change /veh SRD5A1 (11742802_a_at) / RFU TPSAB1 /// TPSB2 (11721975_s_at) / Fold change /veh TPSAB1 /// TPSB2 (11721975_s_at) / RFU GSTM3 (11746129_a_at) / Fold change /veh GSTM3 (11746129_a_at) / RFU IL23R (11737362_x_at) / Fold change /veh IL23R (11737362_x_at) / RFU TMEM51 (11727254_a_at) / Fold change /veh TMEM51 (11727254_a_at) / RFU PIWIL2 (11732686_x_at) / Fold change /veh PIWIL2 (11732686_x_at) / RFU ORM1 (11744905_x_at) / Fold change /veh ORM1 (11744905_x_at) / RFU CCDC152 (11743942_at) / Fold change /veh CCDC152 (11743942_at) / RFU ECM1 (11717891_a_at) / Fold change /veh ECM1 (11717891_a_at) / RFU IL23R (11748794_a_at) / Fold change /veh IL23R (11748794_a_at) / RFU TNFAIP8L3 (11732012_x_at) / Fold change /veh TNFAIP8L3 (11732012_x_at) / RFU MBOAT4 (11741988_at) / Fold change /veh MBOAT4 (11741988_at) / RFU 11764193_at / Fold change /veh 11764193_at / RFU TMEM53 (11763286_at) / Fold change /veh TMEM53 (11763286_at) / RFU MAGEB2 (11727129_at) / Fold change /veh MAGEB2 (11727129_at) / RFU TMEM200A (11744735_a_at) / Fold change /veh TMEM200A (11744735_a_at) / RFU CCDC152 (11751479_a_at) / Fold change /veh CCDC152 (11751479_a_at) / RFU FAM211A (11726209_a_at) / Fold change /veh FAM211A (11726209_a_at) / RFU RGS16 (11746705_a_at) / Fold change /veh RGS16 (11746705_a_at) / RFU VCAN (11755009_s_at) / Fold change /veh VCAN (11755009_s_at) / RFU RHOB (11743442_s_at) / Fold change /veh RHOB (11743442_s_at) / RFU RGS16 (11720943_a_at) / Fold change /veh RGS16 (11720943_a_at) / RFU RGS16 (11720944_at) / Fold change /veh RGS16 (11720944_at) / RFU, VPS4B / Fold change vs veh, VPS4B / RFU, CREB1 / Fold change vs veh, CREB1 / RFU, DNAJC13 / Fold change vs veh, DNAJC13 / RFU, GNAQ / Fold change vs veh, GNAQ / RFU, CDK5R1 / Fold change vs veh, CDK5R1 / RFU, ZRANB3 / Fold change vs veh, ZRANB3 / RFU, CUL4A / Fold change vs veh, CUL4A / RFU, CCNY / Fold change vs veh, CCNY / RFU, UFL1 / Fold change vs veh, UFL1 / RFU, COG3 / Fold change vs veh, COG3 / RFU, DIAPH2 / Fold change vs veh, DIAPH2 / RFU, SKA2 / Fold change vs veh, SKA2 / RFU, AFF3 / Fold change vs veh, AFF3 / RFU, LMF1 / Fold change vs veh, LMF1 / RFU, IPO11 / Fold change vs veh, IPO11 / RFU, DFFB / Fold change vs veh, DFFB / RFU, FOXP1 / Fold change vs veh, FOXP1 / RFU, CARD8 / Fold change vs veh, CARD8 / RFU, STRN3 / Fold change vs veh, STRN3 / RFU, ADK / Fold change vs veh, ADK / RFU, RASSF2 / Fold change vs veh, RASSF2 / RFU, WIPF1 / Fold change vs veh, WIPF1 / RFU, LARP1B / Fold change vs veh, LARP1B / RFU, RASA1 / Fold change vs veh, RASA1 / RFU, RB1 / Fold change vs veh, RB1 / RFU, PPFIA1 / Fold change vs veh, PPFIA1 / RFU, MAT2A / Fold change vs veh, MAT2A / RFU, CCT5 / Fold change vs veh, CCT5 / RFU, WDR92 / Fold change vs veh, WDR92 / RFU, CUX1 / Fold change vs veh, CUX1 / RFU, TTC7A / Fold change vs veh, TTC7A / RFU, TMEM135 / Fold change vs veh, TMEM135 / RFU, DEPTOR / Fold change vs veh, DEPTOR / RFU, CPM / Fold change vs veh, CPM / RFU, DNAJB6 / Fold change vs veh, DNAJB6 / RFU, CACNA2D3 / Fold change vs veh, CACNA2D3 / RFU, DTX4 / Fold change vs veh, DTX4 / RFU, TFCP2 / Fold change vs veh, TFCP2 / RFU, GMCL1 /// GMCL1P1 / Fold change vs veh, GMCL1 /// GMCL1P1 / RFU, AEBP2 / Fold change vs veh, AEBP2 / RFU, SNHG1 /// SNORD22 /// SNORD25 /// SNORD26 /// SNORD27 /// SNORD28 /// SNORD29 /// SNORD31 / Fold change vs veh, SNHG1 /// SNORD22 /// SNORD25 /// SNORD26 /// SNORD27 /// SNORD28 /// SNORD29 /// SNORD31 / Fold change (Aza/veh), C12orf56 (ProbeSet 11735607_a_at) / Fold change (ACY-1035/veh), C12orf56 (ProbeSet 11735607_a_at) / Fold change (Aza/veh), FGFR1OP (ProbeSet 11751329_s_at) / Fold change (ACY-1035/veh), FGFR1OP (ProbeSet 11751329_s_at) / Fold change (Aza/veh), VPS36 (ProbeSet 11739960_a_at) / Fold change (ACY-1035/veh), VPS36 (ProbeSet 11739960_a_at) / RFU SYPL1 (11715823_x_at) / Fold change /veh SYPL1 (11715823_x_at) / RFU IGFBP7 (11715501_s_at) / Fold change /veh IGFBP7 (11715501_s_at) / RFU REEP3 (11722064_at) / Fold change /veh REEP3 (11722064_at) / RFU IGLL1 (11728026_x_at) / Fold change /veh IGLL1 (11728026_x_at): dose or concentration left out as unconfirmed
Conditions: MV-4-11 cells, 48 hours

Nc1ccc(-c2cccs2)cc1NC(=O)c1ccc2c(c1)cc(C1CC1)n2CCN1CCOCC1 [ACY-1035]
RFU SPTSSB (11747773_x_at): 31.07 RFU
